# Literature values as cited in PMC9088311, “Cyclic Thiosulfonates for Thiol-Mediated Uptake: Cascade Exchangers, Transporters, Inhibitors” (JACS Au, 2022).
# System: lentivirus with D614G SC2 spike protein, A549 cells overexpressing ACE2 and TMPRSS2
# Settings: 50 μM; cited from earlier work
smiles,measurement,value
"O=S1(=O)C[C@H](O)[C@H](O)CS1 (stereo in doubt) [Compound 3, (4S,5R)-4,5-dihydroxy-1,2-dithiane-1,1-dioxide]","inhibition of luciferase expression, thus SC2 lentivector entry",≈ 60%
